Reference: patent US8017644B2, “2-arylindole derivatives as nPGES-1 inhibitors” (Aziende Chimiche Riunite Angelini Francesco A.C.R.A.F. …, priority 2006, dated 2011)
Blank lines part the entries; values can stand above or below the compound they belong to.

Columns and labels:
[1] = test system: production of PGF2α in A549 cells; experiment: Inhibition of PGF2α production in IL-1β-stimulated A549 cells (EIA), selectivity; assay type: cell-based; settings: Homo sapiens; for inhibition at 10 µM: compound at 10 μm; for IC50: IL-1β-stimulated, read-out: pIC50 PGF2α (converted)
From the text: (§1) The test used makes it possible to evaluate the inhibitory capacity of the test compounds on the production of PGE2 and the selectivity relative to the production of PGF2α. The human pulmonary adenocarcinoma cell line A549 was used, which is particularly sensitive to stimulation with proinflammatory cytokines, for instance IL-1β, and, in response to this stimulation, is particularly active in the production and release of two prostanoids: PGE2 and PGF2α (Thoren S. Jakobsson P-J, 2000).
(§2) The cells were stimulated with IL-1β (10 ng/ml) and simultaneously treated with the test compound for 22 hours in a suitable culture medium (DMEM—Dulbecco's Modified Eagles Medium) enriched with 5% fetal calf serum and L-glutamine (4 mM final) in an incubator at 37° C. and with a CO2 concentration of 5%.
(§3) At the end of the incubation, the amount of PGE2 and PGF2α, produced and released into the supernatant were assayed using an EIA kit (produced and sold by Cayman Chemicals, Ann Arbor, Mich., USA).
(§4) The comparative compound used was indomethacin at a concentration of 10 nM (Sigma-Aldrich), which is a non-steroidal anti-inflammatory drug that inhibits in equal measure both PGE2 and PGF2α.
(§5) For illustrative purposes, Table 3 collates the pIC50 values of a number of compounds of the invention, where pIC50 represents the negative logarithm of the IC50, which, in turn, represents the concentration of compound that inhibits the production of PGE2 or PGF2α by 50% relative to cells that are stimulated but not treated with the same compound.

[2] = test system: production of PGE2 in A549 cells (mPGES-1); experiment: Inhibition of PGE2 production in IL-1β-stimulated A549 cells (EIA); assay type: cell-based; settings: Homo sapiens; for inhibition at 10 µM: compound at 10 μm; for IC50: IL-1β-stimulated, read-out: pIC50 PGE2 (converted)
From the text: as §1, §2, §3, §4, §5

[3] = test system: production of PGE2 in U-937 cells (cPGES); experiment: Inhibition of basal PGE2 production in U-937 cells (selectivity between isoforms of PGES); assay type: cell-based; settings: Homo sapiens, basal conditions; for inhibition at 10 µM: compound at 10 μM
From the text: The test used makes it possible to evaluate the capacity of the compounds of the invention to inhibit the production of PGE2 in a human lymphoma cell line U-937 that preferentially expresses an enzymatic isoform (cPGES), which is responsible for the production of PGE2 under basal conditions, in the absence of pro-inflammatory stimuli. This enzymatic form is different from the one predominantly expressed in the A549 cells (mPGES-1) after a pro-inflammatory stimulus.
The absence of inhibitory activity on PGE2 in this cell model ensures the selectivity of the compound compared with the enzymatic form responsible for the production of PGE2 in the presence of inflammatory stimuli.
The reference compound used was indomethacin at a concentration of 10 nM.

[4] = test system: acetic acid-induced stretching in mice; experiment: Acetic acid-induced stretching in mice (inflammatory pain); assay type: in vivo; settings: female CD-1 mice; for No. of stretches: 20 minutes after acetic acid, vehicle 52; for % inhibition (stretches): vs vehicle (MTC)
Description: The test compound was evaluated in the model of acetic acid-induced stretching in mice (Stock J. L. et al., J Clin Inv 2001, 107: 325-331). This test makes it possible to evaluate the antinociceptive activity of the compounds of the invention in a model of inflammatory pain.
Female CD-1 mice weighing 25-30 g were used for the test. The animals were treated intraperitoneally with the test compound (0.1-10 mg/kg) suspended in methylcellulose (MTC). The control animals were treated with the vehicle alone (MTC) via the same route.
30 minutes after the treatment, the animals received an intraperitoneal injection of acetic acid (0.7 v/v in physiological solution, 16 μl/g of body weight) in order to induce inflammatory pain and to check the effects of the test compound on the nociceptive response.
Immediately after the administration of acetic acid and for the following 20 minutes, the number of stretches, which represents the parameter for evaluation of the nociceptive response, was measured.

[5] = indomethacin at 10 nM, IL-1β 10 ng/ml, 22 hours

SMILES: CCn1c(-c2ccc(OCc3ccccc3)cc2)cc2cc(NC(=O)c3ccccc3Cl)ccc21 [Compound 22]
inhibition at 10 µM ([1]; IL-1β 10 ng/ml, 22 hours): < 20%
inhibition at 10 µM ([2]; IL-1β 10 ng/ml, 22 hours): 79%

IC50 [1]: > 100000 nM
IC50 [2]: 2000 nM
SMILES: CCn1c(-c2ccccc2)cc2cc(NC(=O)c3c(Cl)cccc3Cl)ccc21 [Compound 10]
inhibition at 10 µM ([1]; IL-1β 10 ng/ml, 22 hours): < 20%
inhibition at 10 µM ([2]; IL-1β 10 ng/ml, 22 hours): 76%
inhibition at 10 µM [3]: 22%

SMILES: CCn1c(-c2ccccc2)c(C)c2cc(NC(=O)c3ccccc3Cl)ccc21 [Compound 7]
inhibition at 10 µM ([1]; IL-1β 10 ng/ml, 22 hours): 39%
inhibition at 10 µM ([2]; IL-1β 10 ng/ml, 22 hours): 90%

SMILES: CCn1c(-c2ccc(Cl)c(C)c2)cc2cc(NC(=O)c3ccccc3Cl)ccc21 [Compound 25]
inhibition at 10 µM ([1]; IL-1β 10 ng/ml, 22 hours): < 20%
inhibition at 10 µM ([2]; IL-1β 10 ng/ml, 22 hours): 89%

SMILES: CCn1c(-c2ccccc2)cc2cc(NC(=O)c3ccccc3[N+](=O)[O-])ccc21 [Compound 16]
inhibition at 10 µM ([1]; IL-1β 10 ng/ml, 22 hours): < 20%
inhibition at 10 µM ([2]; IL-1β 10 ng/ml, 22 hours): 74%

SMILES: CCOc1ccc(-c2cc3cc(NC(=O)c4ccccc4Cl)ccc3n2CC)cc1 [Compound 21]
inhibition at 10 µM ([1]; IL-1β 10 ng/ml, 22 hours): < 20%
inhibition at 10 µM ([2]; IL-1β 10 ng/ml, 22 hours): 66%

IC50 [1]: 2.51 nM
IC50 [2]: 5.01 nM
SMILES: COc1ccc2c(c1)c(CC(=O)O)c(C)n2C(=O)c1ccc(Cl)cc1 [Indomethacin, indomethacin, reference compound]
inhibition at 0.01 µM [1, 5]: 100%
inhibition at 0.01 µM [2, 5]: 100%
inhibition at 0.01 µM ([3]; indomethacin at 10 nM): 78%

SMILES: CCn1c(-c2cccc(F)c2)cc2cc(NC(=O)c3ccccc3Cl)ccc21 [Compound 5]
inhibition at 10 µM ([1]; IL-1β 10 ng/ml, 22 hours): 36%
inhibition at 10 µM ([2]; IL-1β 10 ng/ml, 22 hours): 91%

SMILES: CCn1c(-c2ccccc2)cc2cc(NC(=O)c3cc([N+](=O)[O-])ccc3Cl)ccc21 [Compound 12]
inhibition at 10 µM ([1]; IL-1β 10 ng/ml, 22 hours): < 20%
inhibition at 10 µM ([2]; IL-1β 10 ng/ml, 22 hours): 75%

IC50 [2]: 2000 nM
SMILES: CCn1c(-c2ccccc2)cc2cc(NC(=O)c3ccccc3Cl)ccc21 [Compound 2]
inhibition at 10 µM ([1]; IL-1β 10 ng/ml, 22 hours): < 20%
inhibition at 10 µM ([2]; IL-1β 10 ng/ml, 22 hours): 76%
No. of stretches ([4]; 0.1 mg/kg intraperitoneally): 38
% inhibition (stretches) ([4]; 0.1 mg/kg intraperitoneally): 27%
No. of stretches ([4]; 1 mg/kg intraperitoneally): 36
% inhibition (stretches) ([4]; 1 mg/kg intraperitoneally): 31%
No. of stretches ([4]; 10 mg/kg intraperitoneally): 25
% inhibition (stretches) ([4]; 10 mg/kg intraperitoneally): 52%
inhibition at 10 µM [3]: < 20%

IC50 [2]: 794 nM
SMILES: CCn1c(-c2ccccc2)cc2cc(NC(=O)c3cc(Cl)ccc3Cl)ccc21 [Compound 13]
inhibition at 10 µM ([1]; IL-1β 10 ng/ml, 22 hours): 36%
inhibition at 10 µM ([2]; IL-1β 10 ng/ml, 22 hours): 100%
inhibition at 10 µM [3]: 30%

IC50 [1]: 50100 nM
IC50 [2]: 1260 nM
SMILES: CCn1c(-c2ccccc2)cc2cc(NC(=O)c3ccccc3C(F)(F)F)ccc21 [Compound 9]
inhibition at 10 µM ([1]; IL-1β 10 ng/ml, 22 hours): < 20%
inhibition at 10 µM ([2]; IL-1β 10 ng/ml, 22 hours): 100%
inhibition at 10 µM [3]: < 20%

IC50 [2]: 2510 nM
SMILES: CCn1c(-c2ccccc2C)cc2cc(NC(=O)c3ccccc3Cl)ccc21 [Compound 18]
inhibition at 10 µM ([1]; IL-1β 10 ng/ml, 22 hours): < 20%
inhibition at 10 µM ([2]; IL-1β 10 ng/ml, 22 hours): 66%
inhibition at 10 µM [3]: < 20%

SMILES: CCn1c(-c2ccc(OC)cc2)cc2cc(NC(=O)c3ccccc3Cl)ccc21 [Compound 30]
inhibition at 10 µM ([1]; IL-1β 10 ng/ml, 22 hours): < 20%
inhibition at 10 µM ([2]; IL-1β 10 ng/ml, 22 hours): 75%

IC50 [2]: 1580 nM
SMILES: CCn1c(-c2ccc(F)cc2)cc2cc(NC(=O)c3ccccc3Cl)ccc21 [Compound 6]
inhibition at 10 µM ([1]; IL-1β 10 ng/ml, 22 hours): < 20%
inhibition at 10 µM ([2]; IL-1β 10 ng/ml, 22 hours): 82%
inhibition at 10 µM [3]: < 20%

SMILES: CC(C)n1c(-c2ccccc2)cc2cc(NC(=O)c3ccccc3Cl)ccc21 [Compound 3]
inhibition at 10 µM ([1]; IL-1β 10 ng/ml, 22 hours): 34%
inhibition at 10 µM ([2]; IL-1β 10 ng/ml, 22 hours): 91%

IC50 [1]: > 100000 nM
IC50 [2]: 3160 nM
SMILES: CCn1c(-c2ccc(C)cc2)cc2cc(NC(=O)c3ccccc3Cl)ccc21 [Compound 20]
inhibition at 10 µM ([1]; IL-1β 10 ng/ml, 22 hours): < 20%
inhibition at 10 µM ([2]; IL-1β 10 ng/ml, 22 hours): 75%
inhibition at 10 µM [3]: < 20%

SMILES: CCn1c(-c2ccccc2F)cc2cc(NC(=O)c3ccccc3Cl)ccc21 [Compound 4]
inhibition at 10 µM ([1]; IL-1β 10 ng/ml, 22 hours): < 20%
inhibition at 10 µM ([2]; IL-1β 10 ng/ml, 22 hours): 72%

SMILES: Cn1c(-c2ccccc2)cc2cc(NC(=O)c3ccccc3Cl)ccc21 [Compound 1]
inhibition at 10 µM ([1]; IL-1β 10 ng/ml, 22 hours): < 20%
inhibition at 10 µM ([2]; IL-1β 10 ng/ml, 22 hours): 63%

SMILES: CCn1c(-c2ccc(C)c(C)c2)cc2cc(NC(=O)c3ccccc3Cl)ccc21 [Compound 29]
inhibition at 10 µM ([1]; IL-1β 10 ng/ml, 22 hours): < 20%
inhibition at 10 µM ([2]; IL-1β 10 ng/ml, 22 hours): 91%

SMILES: CCn1c(-c2cccc3ccccc23)cc2cc(NC(=O)c3ccccc3Cl)ccc21 [Compound 24]
inhibition at 10 µM ([1]; IL-1β 10 ng/ml, 22 hours): < 20%
inhibition at 10 µM ([2]; IL-1β 10 ng/ml, 22 hours): 79%

SMILES: CCn1c(-c2cccc(Cl)c2C)cc2cc(NC(=O)c3ccccc3Cl)ccc21 [Compound 28]
inhibition at 10 µM ([1]; IL-1β 10 ng/ml, 22 hours): < 20%
inhibition at 10 µM ([2]; IL-1β 10 ng/ml, 22 hours): 65%

IC50 [1]: 100000 nM
IC50 [2]: 1000 nM
SMILES: CCn1c(-c2cccc(C)c2)cc2cc(NC(=O)c3ccccc3Cl)ccc21 [Compound 19]
inhibition at 10 µM ([1]; IL-1β 10 ng/ml, 22 hours): 43%
inhibition at 10 µM ([2]; IL-1β 10 ng/ml, 22 hours): 87%
inhibition at 10 µM [3]: < 20%
